# Measurements reported in patent US11679167B2, “Ophthalmic compositions, and ocular uses thereof, of indigo carmine” (priority 2018, dated 2023).
# “Also recorded” adds a separate entry of the source.
# What was measured:
# [1] = tested on: anterior capsule; settings: cited from earlier work
# [2] = tested on: eye bank eyes; assay: Dye solution instilled by injection into the anterior chamber of eye bank eyes; staining and outflow seen by naked eye or operating microscope; design: species or system human; settings: for Appearance (egress) of dye in the outflow vessels after injection into the anterior chamber: human eye bank eyes, Indigo Carmine 0.004, 0.04 and 0.4 wt. %
# Description: After an incision is made into the anterior chamber of the eye, a small amount of aqueous humor is expressed and the dye solution is instilled by injection into the anterior chamber. The dye solution is typically left in place for 30 seconds, during which time it stains the anterior capsule of the lens. Excess dye solution is then expelled, usually using a viscoelastic device or flushed out with a balanced salt solution.
# Dye solutions containing 0.004 wt. %, 0.04 wt. %, and 0.4 wt. % of Indigo Carmine (prepared by serial dilutions of a 0.4 wt. % Indigo Carmine solution provided by Micro-Tech (Nanjing) Co.) were instilled by injection into the anterior chamber of seven eye bank eyes following the dye solution instillation procedure detailed above.
# Special imaging techniques were not required.
# [3] = tested on: ocular structures; settings: cited from earlier work
# [4] = sodium salt; cited from earlier work
# [5] = tested on: porcine eye; assay: Dye injected into the lenticular plain after Small Incision Lenticule Extraction (SMILE)
# Description: FIG. 9A is an operating microscope view of a porcine eye upon which a Small Incision Lenticule Extraction procedure (SMILE) has been carried out. From this view, circular horizontal plains have been cut in the corneal stroma, a superficial smaller diameter cut and a deeper cut of larger diameter. The cuts join in the corneal periphery, thereby creating a lenticule. The arrows show the edge of these cuts.
# FIG. 9B is an operating microscope view of a porcine eye upon which a Small Incision Lenticule Extraction procedure (SMILE) has been carried out. Indigo Carmine has been injected into the lenticular plain.
# [6] = tested on: ocular surface squamous neoplastic lesion; assay: Topical application of dye to a human eye, slit lamp view; format: in vivo
# Description: FIG. 8 is a slit lamp view of a human eye wherein an ocular surface squamous neoplastic lesion is delineated after topical application of Indigo Carmine. A blue outline is seen around the perimeter of the white ocular surface squamous neoplastic lesion.
# [7] = cited from earlier work
# [8] = anterior chamber perfused or injected with dye solution, sodium salt
compound,measurement,setting,value
Cc1cc(-c2ccc(/N=N/c3c(S(=O)(=O)O)cc4cc(S(=O)(=O)O)cc(N)c4c3O)c(C)c2)ccc1/N=N/c1c(S(=O)(=O)O)cc2cc(S(=O)(=O)O)cc(N)c2c1O [Trypan Blue],Lowest concentration at which staining of the anterior capsule occurs,[1],≥ 0.0125 wt. %
same,Appearance (egress) of dye in the outflow vessels after injection into the anterior chamber,[2],the dye appears to remain within the eye
same,Identifying and visualizing anterior lens capsule and trabecular meshwork,[3],effective
same,Identifying or visualizing the canal of Schlemm,[3],not effective
Brilliant Blue,Appearance (egress) of dye in the outflow vessels after injection into the anterior chamber,[2],the dye appears to remain within the eye
"O=C1C(=C2Nc3ccc(S(=O)(=O)[O-])cc3C2=O)Nc2ccc(S(=O)(=O)[O-])cc21.[Na+].[Na+] [Indigo Carmine, 5,5′-indigodisulfonic acid sodium salt]",Protein binding,[4],low protein binding; also recorded: relatively reduced protein binding
same,Identification of the lenticule edge,[5],white arrows indicate the complete circular edge of the lenticule
same,Delineation of ocular surface squamous neoplastic lesion,[6],delineated
same,Solubility in water,[7],soluble in water
same,Diffusion of dye through tissues,[2],generally does not diffuse through tissues
same,Staining of the canal of Schlemm,[2]; [8],stains heavily; also recorded: heavy staining of Schlemm's canal
same,Staining of the trabecular meshwork,[2]; [8],stains the trabecular meshwork lightly; also recorded: more lightly stained
same,Visibility of dye in the collector channels on the surface of the eye after passing through the drainage system,"[2]; at each concentration: 0.004 wt. %, 0.04 wt. %, 0.4 wt. %",visible to the naked eye of the surgeon
same,Appearance (egress) of dye in the outflow vessels after injection into the anterior chamber,[2]; sodium salt,"appeared in the fine vessels in the conjunctiva adjacent to the limbus, the aqueous veins and the conjunctival venous system; also recorded: some of the dye exiting the eye through the aqueous veins"
same,Staining of the anterior capsule of the lens,"[2]; injection via small corneal incision, capsulorhexis procedure, sodium salt",stain the anterior capsule of the crystalline lens; also recorded: lightly stained
same,Visibility of dye on the surface of the instilled eye,"[2]; no special imaging techniques, standard operating microscope",easily visible to the naked eye of the surgeon
same,Dye in the deep scleral plexus,"[2]; once the conjunctiva was reflected away, sodium salt",observed in the deep scleral plexus; also recorded: deeper vessels are seen
CC1(C)C(/C=C/C=C/C=C/C=C2\N(CCCCS(=O)(=O)O)c3ccc4ccccc4c3C2(C)C)=[N+](CCCCS(=O)(=O)[O-])c2ccc3ccccc3c21 [Indocyanine Green],Appearance (egress) of dye in the outflow vessels after injection into the anterior chamber,[2],the dye appears to remain within the eye
CCN(CC)c1ccc(C(=C2C=CC(=[N+](CC)CC)C=C2)c2cc(O)c(S(=O)(=O)O)cc2S(=O)(=O)O)cc1 [Patent Blue],Appearance (egress) of dye in the outflow vessels after injection into the anterior chamber,[2],the dye appears to remain within the eye
